Reference: article PMC4010497, “Synthesis and Evaluation of Fluorine-Substituted Phenyl Acetate Derivatives as Ultra-Short Recovery Sedative/Hypnotic Agents” (PLoS ONE, 2014)

Experiments:
GABAA receptor = assay: GABAA radioligand binding assay ([3H]EBOB); conditions: 50 µM compound, 0.5 nM [3H]EBOB, rat frontoparietal cortex
Method: All the new compounds were dissolved in 5% DMSO.
Specific binding was determined in the presence of compounds.
Membrane suspensions were thawed and centrifuged in incubation buffer at 10,000×g for 10 min and washed by a similar centrifugation. For displacement studies, membrane suspensions (5 mg original wet wt./ml) were incubated with 0.5 nM [^3H]EBOB ([…], Perkin Elmer Life Sciences, Boston, MA, USA) in the absence or presence of 50 µM of new compounds or reference drug for 2 h at 25°C. Nonspecific binding was determined in the presence of 10 µM Bicuculline. Bicuculline and picrotoxin were frequently used to determine the nonspecific binding when [3H]EBOB as radioligand [17]. Triplicate 1 ml samples were filtered on Whatman GF/B filters under vacuum with a Brandel Harvester and washed with 3×3 ml ice-cold buffer.

mice [1] = assay: animal or person; type: in vivo; conditions: mice; for ED50: Mus musculus, IV over 10 s, 95% confidence limits, read-out: HD50 (the source's name); for Duration of LORR: IV 2× HD50, mean ± SD (n = 10); for Onset time: IV, mean ± SD (n = 10)
Method: All tests were performed during the light period. Groups of mice, rats and rabbits were injected intravenously (lateral tail vein) over 10 s with each dose of test compound, placed in separate boxes to reduce external stimuli and assessed for the loss of righting reflex. Dosing was performed using mg/kg scheme. A set of dose levels was chosen, and depending on whether the loss of righting reflex was observed, extra doses were introduced to provide data for the loss of righting reflex over a narrow dose range to allow potency calculations. From the percentage of mice, rats and rabbits in each group showing loss of righting reflex for ≥30 s, a probit analysis (SAS Institute) was performed to obtain an HD50 for each compound with 95% confidence limits.
Immediately following the injection, the mice, rats and rabbits were tested for loss of righting reflex. […] Once a loss was observed, the interval between the loss of righting reflex and the return to righting reflex was recorded. The anesthetized animals recovered righting reflexes spontaneously. To compare the duration of LORR of each compound at equipotent doses, groups of mice, rats and rabbits were injected with each compound at 2× HD50 over 10 s.
Time to walk was the time required after righting before mice and rabbits walked from the center to the periphery of a 30-cm diameter dise.
The rotarod test was conducted to evaluate the recovery to the motor coordination. Before the LORR test, mice were trained for 2 consecutive days. Trained mice could maintain their balance on rod for more than 2 mins. After the mice could walk from the center to the periphery of a 30-cm diameter dise, they were put on the rotarod. Mice were classified as behavioral recovery when, on being placed on the rod, they could maintain their balance for 20 s. The time to behavioral recovery was the time required after mice walked from the centre to the periphery of a 30-cm diameter disc before they could maintain their balance on rod for 20 s.

mice [2] = assay: in vivo; conditions: LD50/HD50
Method: (§1) The LD50 was determined in mice, rats, and rabbits and the TI was calculated as LD50/HD50.

in vivo = conditions: mouse, in vivo, mice, 95% confidence limits
Method: as §1

[3] = Octanol:water partition coefficient; type: physicochemical; conditions: water buffered with 10 mm Tris (pH 7.4)
Method: One mg of each hypnotic was added to 10 ml of water buffered with 10 mm Tris (pH 7.4) and 1 ml of octanol. The mixture was stirred overnight and then centrifuged to fully separate the organic and aqueous phases. The relative hypnotic concentration in each phase (i.e., the partition coefficient) was determined by high-performance liquid chromatography as described for blood.

Compound | GABAA binding (50 µmol) (Mean ± SD), percentage of inhibition (GABAA receptor) | ED50 (mice [1]) | Duration of LORR (mice [1]) | Onset time (mice [1]) | TI (mice [2]) | LD50 (in vivo) | Octanol:Water Partition (Coefficient ± SD) [3] | anesthetic potency (in words) (mice [1]) | Time to walk (mice [1]; 2× HD50) | time to behavioral recovery (mice [1]; 2× HD50, rotarod) | LD50 (in vivo; intravenous)
CCOC(=O)Cc1ccc(OCC(=O)N(CC)CC)c(OC(F)(F)F)c1 [Compound 5a, Ethyl 2-(4-(2-(diethylamino)-2-oxoethoxy)-3-(trifluoromethoxy)phenyl)acetate] | 69.1±4.2% | 72.5 mg/kg | 155.2 ± 10.3 s | 35.1 ± 6.8 s | 6.1 | 442 mg/kg | 2157±185 | – | – | – | –
CCN(CC)C(=O)COc1ccc(CC(=O)OCC(F)(F)F)cc1OCC(F)(F)F [Compound 5f, 2,2,2-trifluoroethyl 2-(4-(2-(diethylamino)-2-oxoethoxy)-3-(2,2,2-trifluoroethoxy)phenyl)acetate] | 45.4±4.3% | – | – | – | – | – | 1452±156 | poor anesthetic potency | – | – | –
CCOc1cc(CC(=O)OC(C)C(F)(F)F)ccc1OCC(=O)N(CC)CC (stereo not shown) [Compound 5l, 1,1,1-trifluoropropan-2-yl 2-(4-(2-(diethylamino)-2-oxoethoxy)-3-ethoxyphenyl)acetate] | 79.5±10.0% | 20.7 mg/kg | 121.2 ± 11.5 s | 7.3 ± 1.1 s | 5.1 | 103 mg/kg | 2857±400 | – | – | – | –
CCN(CC)C(=O)COc1ccc(CC(=O)OCC(F)(F)F)cc1OC [Compound 5g, 2,2,2-trifluoroethyl 2-(4-(2-(diethylamino)-2-oxoethoxy)-3-methoxyphenyl)acetate] | 87.2±5.7% | 59.6 mg/kg | 44.8 ± 2.1 s | 6.2 ± 0.4 s | 6.1 | 363 mg/kg | 597±68 | – | 22.5 ± 6.9 s | 46.5 ± 8.5 s | –
CCN(CC)C(=O)COc1ccc(CC(=O)OCCC(F)(F)F)cc1OC [Compound 5h, 3,3,3-trifluoropropyl 2-(4-(2-(diethylamino)-2-oxoethoxy)-3-methoxyphenyl)acetate] | 80.3±7.6% | 25.6 mg/kg | 69.3 ± 7.8 s | 7.5 ± 1.2 s | – | – | 792±36 | – | – | – | –
CCCOC(=O)Cc1ccc(OCC(=O)N(CC)CC)c(OCC(F)(F)F)c1 [Compound 5e, propyl 2-(4-(2-(diethylamino)-2-oxoethoxy)-3-(2,2,2-trifluoroethoxy)phenyl)acetate] | 72.2±6.5% | 43.8 mg/kg | 224.6 ± 19.5 s | 23.4 ± 4.6 s | 5.7 | 250 mg/kg | 872±65 | – | – | – | –
CCOc1cc(CC(=O)OCCC(F)(F)F)ccc1OCC(=O)N(CC)CC [Compound 5k, 3,3,3-trifluoropropyl 2-(4-(2-(diethylamino)-2-oxoethoxy)-3-ethoxyphenyl)acetate] | 74.0±6.3% | 29.2 mg/kg | 65.6 ± 6.8 s | 7.6 ± 0.9 s | – | – | 667±102 | – | – | – | –
CCN(CC)C(=O)COc1ccc(CC(=O)OCC(F)(F)F)cc1OC(F)(F)F [Compound 5c, 2,2,2-trifluoroethyl 2-(4-(2-(diethylamino)-2-oxoethoxy)-3-(trifluoromethoxy)phenyl)acetate] | 30.4±3.5% | – | – | – | – | – | 3427±130 | poor anesthetic potency | – | – | –
CCOC(=O)Cc1ccc(OCC(=O)N(CC)CC)c(OCC(F)(F)F)c1 [Compound 5d, ethyl 2-(4-(2-(diethylamino)-2-oxoethoxy)-3-(2,2,2-trifluoroethoxy)phenyl)acetate] | 67.7±3.2% | 47.4 mg/kg | 181.9 ± 14.3 s | 25.2 ± 3.8 s | 5.5 | 260 mg/kg | 778±77 | – | – | – | –
CCN(CC)C(=O)COc1ccc(CC(=O)OC(C)C(F)(F)F)cc1OC (stereo not shown) [Compound 5i, 1,1,1-trifluoropropan-2-yl 2-(4-(2-(diethylamino)-2-oxoethoxy)-3-methoxyphenyl)acetate] | 81.6±10.5% | 21.1 mg/kg | 80.1 ± 9.3 s | 7.2 ± 0.5 s | 5.5 | 112 mg/kg | 1857±124 | – | – | – | –
CCCOC(=O)Cc1ccc(OCC(=O)N(CC)CC)c(OC(F)(F)F)c1 [Compound 5b, propyl 2-(4-(2-(diethylamino)-2-oxoethoxy)-3-(trifluoromethoxy)phenyl)acetate] | 73.9±5.3% | 58.7 mg/kg | 162.6 ± 15.7 s | 32.4 ± 5.6 s | 5.9 | – | 4745±280 | – | – | – | 346 mg/kg
